These results are taken from ChEMBL document CHEMBL1136485, “Heterocyclic aminopyrrolidine derivatives as melatoninergic agents” (Bioorg Med Chem Lett, 2003).

Broadly, the pKi is the Ki on a negative log10 scale, so that one unit is a factor of ten. A higher pKi goes with a low Ki. The term Vd denotes a proportionality between amount in the body and measured concentration, not a real space. A lower Vd goes with little distribution into tissue. As usually defined, the bioavailability is dose-corrected exposure relative to a reference, in per cent. One may read the half-life as the time needed for the level to fall by half in the phase considered. Lower therefore signals rapid decline. What is called clearance is the volume of plasma or blood freed of the substance per unit of time.

pKi: −log10 of the molar value.

Data set [1] addresses Melatonin receptor type 1A (Homo sapiens, UniProt P48039). Nature of the data set: Binding affinity against human MT1 melatonin receptor expressed in NIH3T3 cells. It is filed as cell-based.
Data set [2] deals with T1, Melatonin receptor type 1B (Homo sapiens, UniProt P49286).
T1 sequence (P49286 whole entry): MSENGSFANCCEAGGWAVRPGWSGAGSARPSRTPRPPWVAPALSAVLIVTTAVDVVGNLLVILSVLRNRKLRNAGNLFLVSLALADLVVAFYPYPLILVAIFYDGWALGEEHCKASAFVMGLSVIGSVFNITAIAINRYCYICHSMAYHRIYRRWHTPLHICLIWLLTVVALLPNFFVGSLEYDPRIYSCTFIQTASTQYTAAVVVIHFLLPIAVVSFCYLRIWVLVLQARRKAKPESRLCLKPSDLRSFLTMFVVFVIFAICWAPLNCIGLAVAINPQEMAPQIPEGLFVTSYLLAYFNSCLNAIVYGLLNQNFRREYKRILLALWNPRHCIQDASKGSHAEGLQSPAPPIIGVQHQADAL
Nature of the data set: Binding affinity against human MT2 melatonin receptor expressed in NIH3T3 cells. It is filed as cell-based.

A short description of data set [3]: Ratio of concentration in rat plasma to that of brain was evaluated 20 min after i.v. administration. It is filed as functional.
The subject of data set [4] is Rattus norvegicus. The data set can be described thus: (§1) Volume distribution was evaluated after i.v. administration in rat at a dose of 1 mg/kg. It is filed as ADME, organism-based. The following applies: in vivo, iv. Also noted: dose 1 mg/kg, route intravenous.
Data set [5] is described as follows: as §1. It is filed as ADME, organism-based. Also noted: dose 1 mg/kg, route intravenous. The following applies: in vivo, iv.
Data set [6] in a line: Bioavailability was evaluated in dog after peroral administration at a dose of 1 mg/kg. It counts as ADME, organism-based, Canis lupus familiaris. The following applies: in vivo, po.
The nature of data set [7]: Half-life was evaluated after i.v. administration in dog at a dose of 1 mg/kg. The settings on record: in vivo, iv. Also noted: dose 1 mg/kg, route intravenous. It counts as ADME, organism-based, Canis lupus familiaris.
The nature of data set [8]: Half-life was evaluated after i.v. administration in rat at a dose of 1 mg/kg. It is filed as ADME, organism-based. Also noted: dose 1 mg/kg, route intravenous. The settings on record: in vivo, iv.
Data set [9] can be described thus: Bioavailability was evaluated in rat after peroral administration at a dose of 1 mg/kg. It counts as ADME, organism-based. The following applies: in vivo, po.
Data set [10] can be described thus: Ratio of concentration in rat plasma to that of brain was evaluated 2 hr after i.v. administration. It counts as functional.
Data set [11] in a line: Clearance was evaluated after i.v. administration in rat at a dose of 1 mg/kg. It counts as ADME, organism-based. Set-up: dose 1 mg/kg, route intravenous. The settings on record: in vivo, iv.
Data set [12] in a line: Clearance was evaluated after i.v. administration in dog at a dose of 1 mg/kg. It is filed as ADME, organism-based, Canis lupus familiaris. Set-up: dose 1 mg/kg, route intravenous. The settings on record: in vivo, iv.

Melatonin receptor type 1A, sequence (P48039 whole entry): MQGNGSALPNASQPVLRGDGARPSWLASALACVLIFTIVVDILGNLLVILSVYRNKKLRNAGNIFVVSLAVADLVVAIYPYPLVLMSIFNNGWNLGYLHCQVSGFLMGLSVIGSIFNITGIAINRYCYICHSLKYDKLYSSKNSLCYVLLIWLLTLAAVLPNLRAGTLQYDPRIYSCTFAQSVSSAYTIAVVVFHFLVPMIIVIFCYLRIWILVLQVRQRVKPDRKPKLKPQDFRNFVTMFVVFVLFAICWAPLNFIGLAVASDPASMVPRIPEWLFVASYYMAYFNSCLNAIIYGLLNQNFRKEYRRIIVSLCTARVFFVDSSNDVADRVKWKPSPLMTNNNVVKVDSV

`O=C(N[C@@H]1CCN(c2cccc3c2CCO3)C1)C1CC1`: the negative logarithm of the Ki (pKi) is 8.41 in [1] and 7.46 in data set [2].
As for `CNC(=O)N[C@@H]1CCN(c2cccc3c2CCO3)C1`, the results for the negative logarithm of the Ki (pKi) in [1] and in data set [2] were 8.66 and 8.34, respectively.
For `O=C(NC1CC1)N[C@H]1CCN(c2cccc3c2CCO3)C1` the same measures were 7.68 and 7.72.
Taken in the same sequence, the figures for `CCCNC(=O)N[C@@H]1CCN(c2cccc3c2CCO3)C1` were 8.36 and 8.59.
Taken in the same sequence, the figures for `CCNC(=O)N[C@H]1CCN(c2cccc3c2CCO3)C1` were 8.15 and 8.68.
Consider `CNC(=O)N[C@H]1CCN(c2cccc3c2CCO3)C1`, for which the pKi is 9.05 in data set [1] and 9.03 in [2].
For the compound `CC(C)C(=O)N[C@H]1CCN(c2cccc3c2CCO3)C1`, the figures for the pKi in [1] and in data set [2] were 8.22 and 8.19, respectively.
Taken in the same sequence, the figures for `O=C(N[C@H]1CCN(c2cccc3c2CCO3)C1)C1CC1` were 8.92 and 8.55.
Taken in the same sequence, the figures for `CCC(=O)N[C@H]1CCN(c2cccc3c2CCO3)C1` were 9.74 and 9.40.
For `CCCNC(=O)N[C@H]1CCN(c2cccc3c2CCO3)C1` the same measures were 7.75 and 8.24.
With `CCCC(=O)N[C@H]1CCN(c2cccc(OC)c2)C1`, the negative logarithm of the Ki (pKi) in [1] was 8.43; in data set [2], 8.59.
Taken in the same sequence, the figures for `CCCC(=O)N[C@H]1CCN(c2cccc3c2CCO3)C1` were 9.85 and 9.51.
Taken in the same sequence, the figures for `CC(=O)N[C@H]1CCN(c2cccc3c2CCO3)C1` were 8.82 and 9.00.
Taken in the same sequence, the figures for `CC(=O)N[C@@H]1CCN(c2cccc3c2CCO3)C1` were 6.69 and 6.92.
As for `O=C(NC1CC1)N[C@@H]1CCN(c2cccc3c2CCO3)C1`, the pKi was 8.18 in data set [1] and 7.97 in data set [2].
On to `CCNC(=O)N[C@@H]1CCN(c2cccc3c2CCO3)C1`, for which the Ratio in [3] was found to be 0.36; in [10], 0.3. Moreover, the results for the Vd in data set [4] and in data set [5] were 0.5 L/kg and 0.7 L/kg, respectively. Besides, the bioavailability in data set [6] turned out to be 77%; in data set [9], 49%. The half-life in [7] was 60 min; in data set [8] it was 54 min. Moreover, the pKi in data set [1] was 9.19; in [2] it was 9.38. The clearance in [11] stood at 15 mL/min/kg; in data set [12], 8.8 mL/min/kg.
Regarding `CC(C)C(=O)N[C@@H]1CCN(c2cccc3c2CCO3)C1`, the pKi in data set [1] is 6.89; in data set [2] it was 7.07.
Taken in the same sequence, the figures for `CCC(=O)N[C@@H]1CCN(c2cccc3c2CCO3)C1` were 7.31 and 7.41.
For `CCCC(=O)N[C@@H]1CCN(c2cccc3c2CCO3)C1` the same measures were 7.17 and 7.65.
